Where no end group is shown, it is not given here. [ ]: non-standard residue; d: D form. dimethylproline = dimethylproline (dMP); Aib = CC(C)(N)C(=O)O
Test system: BALB/c mice
Assay: Rescue from dexamethasone-induced spleen and thymus weight and cell loss in mice
Format: in vivo, mouse
Details: for Average: average of spleen weight, spleen cell number, thymus weight, thymus cell number, Normal = 100%, DEXA alone 47%; for Thymus Cell number: relative to Normal mice = 100% (DEXA alone 23%); for Thymus Cell number / Thymus Weight / Spleen Cell number / Spleen Weight: dexamethasone 100 μg IP, peptide 200 μg/mouse IV immediately and 24 hours after, sacrificed 48 hours; for Thymus Weight: relative to Normal mice = 100% (DEXA alone 44%); for Spleen Cell number: relative to Normal mice = 100% (DEXA alone 59%); for Spleen Weight: relative to Normal mice = 100% (DEXA alone 62%)
Procedure: Dexamethasone is a corticosteroid medication that induces apoptosis of immune cells and lymphomyeloid tissues. BALB/c mice were used to examine the ability of candidate peptides to rescue lymphocyte cells from apoptosis. Mice were injected IP with 100 μg of Dexamethasone. Dexamethasone-treated mice received immediately following and 24-hours after dexamethasone treatment IV injection of candidate peptides (200 μg peptide/mouse). Mice were sacrificed 48 hours after the first treatment. The spleen and the thymus were weighted and full cell count of both organs was performed.
Peptides used in the screen were SEQ ID NOs: 1-13. The peptide of SEQ ID NO: 42 was used as a positive control. The peptides set forth in SEQ ID NOs: 35-41 were used as negative controls.

Substance	Average [%]	Thymus Cell number [%]	Thymus Weight [%]	Spleen Cell number [%]	Spleen Weight [%]
1 (LPPL[Aib]YP) [compound 1]	65	28	59	82	89
2 (LPPLPY[Aib]) [compound 2]	65	25	61	85	89
4 ([dP]PL[Aib]Y-NH2; N-terminus assumed; SMILES CC(C)C[C@H](NC(=O)[C@@H]1CCCN1C(=O)[C@H]1CCCN1)C(=O)NC(C)(C)C(=O)N[C@@H](Cc1ccc(O)cc1)C(N)=O) [compound 4]	61	31	55	82	77
5 ([dL]PPH[Aib]Y-NH2; N-terminus assumed; SMILES CC(C)C[C@@H](N)C(=O)N1CCC[C@H]1C(=O)N1CCC[C@H]1C(=O)N[C@@H](Cc1c[nH]cn1)C(=O)NC(C)(C)C(=O)N[C@@H](Cc1ccc(O)cc1)C(N)=O) [compound 5]	68	49	52	91	81
6 (LPP[dL]PYP) [compound 6]	58	23	48	80	80
7 (L[dimethylproline]PLPYP) [compound 7]	67	29	72	82	84
8 (LPPVPYP) [compound 8]	60	30	53	82	76
9 (LPPSPYP) [compound 9]	61	31	55	82	76
10 (LPPHPYP) [compound 10]	65	33	56	85	84
11 ([dL]PPHPYP) [compound 11]	68	49	52	91	81
12 ([dL]P[Aib]LAYP) [compound 12]	72	51	63	85	89
13 (LP[dimethylproline]LPYP) [compound 13]	65	44	49	84	82
35 (LPPH[Aib]YP) [compound 35]	52	39	42	65	62
36 ([dL]PPH[Aib]YP) [compound 36]	54	40	43	69	64
37 (Ac-PPL[Aib]Y-NH2; SMILES CC(=O)N1CCC[C@H]1C(=O)N1CCC[C@H]1C(=O)N[C@@H](CC(C)C)C(=O)NC(C)(C)C(=O)N[C@@H](Cc1ccc(O)cc1)C(N)=O) [compound 37]	55	24	48	77	69
38 ([dL]PPL[Aib]YP) [compound 38]	52	24	50	66	67
39 ([dL]PPL[Aib]Y) [compound 39]	55	27	50	73	69
40 ([dL]PPLAY) [compound 40]	55	34	41	72	72
41 ([dL]PPLAY[Aib]) [compound 41]	51	25	49	61	69
42 (LPPLPYP) [compound 42]	59	34	47	78	79
